Assay results as given in PubChem BioAssay (NCI).
Where “and” joins values, the source holds several entries; their conditions need not be identical. Equal values may be shown once.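 Where inhibition never reached the appropriate level, the endpoint shown equals the highest concentration tested. Otherwise, values were interpolated linearly from a five-concentration, 48-hour dose response in 96-well plates. GI50 marks 50% less growth. TGI denotes the concentration required for complete inhibition of growth.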

Legend:
Assay in all cases: NCI anticancer screen, dose series, 48 h
SN12C renal = system: SN12C renal
RXF 393 renal = system: RXF 393 renal
OVCAR-4 ovarian = system: OVCAR-4 ovarian
EKVX NSCLC = system: EKVX NSCLC
OVCAR-3 ovarian = system: OVCAR-3 ovarian
RPMI-8226 leukemia = system: RPMI-8226 leukemia
CAKI-1 renal = system: CAKI-1 renal
M14 melanoma = system: M14 melanoma
NCI-H226 lung = system: NCI-H226 lung
IGROV1 ovarian = system: IGROV1 ovarian

Compound	GI50 (SN12C renal)	TGI (SN12C renal)	GI50 (RXF 393 renal) [µM]	TGI (RXF 393 renal)	GI50 (OVCAR-4 ovarian) [µM]	TGI (OVCAR-4 ovarian)	GI50 (EKVX NSCLC)	TGI (EKVX NSCLC) [µM]	GI50 (OVCAR-3 ovarian)	TGI (OVCAR-3 ovarian)	GI50 (RPMI-8226 leukemia)	TGI (RPMI-8226 leukemia) [µM]	GI50 (CAKI-1 renal) [µM]	TGI (CAKI-1 renal)	GI50 (M14 melanoma) [µM]	TGI (M14 melanoma)	GI50 (NCI-H226 lung) [µM]	TGI (NCI-H226 lung)	GI50 (IGROV1 ovarian) [µM]	TGI (IGROV1 ovarian)
Brc1ccc([I+]c2ccc(Br)cc2)cc1	1.6 µM	4.26 µM	2.67	11.5 µM	1.5	10.6 µM	1.02 µM	3.04	1.19 µM	3.06 µM	0.55 µM	10.5	1.9	8.98 µM	1.53	5.14 µM	2.93	15.3 µM	1.06	6.8 µM
C#C[C@]1(O)CC[C@H]2[C@@H]3CC=C4c5sc(N=C(N)N)nc5CC[C@]4(C)[C@H]3CC[C@@]21C	1.31 µM	2.72 µM	0.141	0.555 µM	1.33	2.75 µM	1.25 µM	2.85	1.36 µM	2.82 µM	0.153 µM	0.864	0.615	1.82 µM	0.497	1.56 µM	1.82	3.97 µM	1.03	2.41 µM
COc1ccc2c(c1)CC[C@@H]1[C@@H]2CC[C@@]2(C)[C@H]1CC1(CCCCC1)[C@@H]2O	20.4 µM	39 µM	4.68	29.2 µM	13.9	28.7 µM	18.3 µM	35.5	15.1 µM	31.1 µM	2.81 µM	9.35	18.2	33.9 µM	13.8	31.4 µM	20.2	44.9 µM	30.9	80.7 µM
CN1CCC2(CC1)C(=O)N(N1CCCCCC1)C(=O)N2c1ccccc1		> 100 µM		> 100 µM		> 100 µM		> 100		> 100 µM		> 100		> 100 µM		> 100 µM		> 100 µM		> 100 µM
COc1cc(/C=C/C(C)=O)ccc1OP(=O)(O)O		> 100 µM		> 100 µM		> 100 µM		> 100		> 100 µM		> 100		> 100 µM		> 100 µM		> 100 µM		> 100 µM
COc1cc([C@@H]2c3cc4c(cc3[C@@H](NCCNCCO)[C@H]3COC(=O)[C@H]23)OCO4)cc(OC)c1O	0.934 µM and 0.331 µM	24.1 µM and 3.19 µM		8.18 µM and 4.94 µM		47.4 µM and > 84.8 µM	5.36 µM and 13 µM	> 100	7.28 µM and 2.31 µM	> 66.9 µM and 11.1 µM	0.46 µM and 0.522 µM	3.84		30.1 µM and > 59.5 µM		28.1 µM and 20.2 µM		4.97 µM and 4.5 µM		20.2 µM and 12 µM
CC(=O)/C=C/C1=C(c2cc3ccccc3s2)c2ccccc2CC1	36.5 µM	> 100 µM	24.9	57.2 µM	25.9	> 100 µM	39.5 µM	> 100	19.4 µM	45 µM	3.86 µM	24.4	51.1	> 100 µM	15.1	31.3 µM	19.8	40.8 µM	27.4	> 100 µM
Cn1c(=O)cc2c3c(c(NCCCO)ccc31)C(=O)c1ccccc1-2	3.45 µM	> 100 µM	8.64	> 100 µM	7.89	> 100 µM	5.23 µM	> 100	5.69 µM	> 100 µM	2.89 µM	> 100	1.79	> 100 µM	3.13	> 100 µM	3.01	> 100 µM	4.98	> 100 µM
CN1C(=O)CNC(=O)[C@H](NC(=O)c2nc3ccccc3cc2O)CSSC[C@H]1C(=O)NCCc1nc2ccccc2cc1O	22.4 µM	> 63.4 µM	13.9	36 µM	25	> 73.1 µM	11 µM	> 61.4	4.61 µM	18.2 µM	14.5 µM	62.3	> 46.6	> 78.1 µM	1.03	35.4 µM	17.3	65.2 µM	32	> 100 µM
O=C1c2ccccc2C(=O)N1c1ccc(S(=O)(=O)Nc2ncccn2)cc1	> 100 µM	> 100 µM	> 100	> 100 µM	> 100	> 100 µM	> 100 µM	> 100	> 100 µM	> 100 µM	> 100 µM	> 100	> 100	> 100 µM	> 100	> 100 µM	> 100	> 100 µM	> 100	> 100 µM
CCCCCCCCCCCCCCCc1cc(O)ccc1N	> 20.1 µM	> 100 µM	18.5	> 84.6 µM	1.23	3.77 µM	> 50.6 µM	> 100	5.1 µM	> 27.9 µM	0.18 µM	18.8	1.72	7.06 µM	> 100	> 100 µM	8.38	> 49.2 µM	0.416	6.61 µM
O=C(Nc1cc(C(F)(F)F)ccc1F)Nc1n[nH]c2ccccc12	> 100 µM	> 100 µM	> 100	> 100 µM	> 100	> 100 µM	> 100 µM	> 100	> 100 µM	> 100 µM	> 100 µM	> 100	> 100	> 100 µM	> 100	> 100 µM	> 100	> 100 µM	0.758	> 100 µM
COC(=O)c1ccccc1NC(=O)/C(=N\NC(C)(C)C)C(C#N)c1nc(-c2ccc([N+](=O)[O-])cc2)cs1 (centres undefined)		> 100 µM		> 100 µM		> 100 µM		> 100		> 100 µM		> 100		> 100 µM		> 100 µM		> 100 µM		> 100 µM
